Measurements: PubChem BioAssay AID328 (DTP/NCI, 2004)
Where “and” joins values, the source holds several entries; their conditions need not be identical. Equal entries are not always repeated. Toxic doses and inconclusive results are not listed.

System: BDF1 mice, P388 leukemia ip, median survival T/C
Experiment: NCI In Vivo Anticancer Drug Screen. Data for tumor model P388 Leukemia (intraperitoneal) in B6D2F1 (BDF1) mice
Details: endpoint: median survival time, higher = longer survival
Outline: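 Survival ratio, drug arm over vehicle arm, in mice with a transplanted tumour.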

[1] = dose: 50.0 mg/kg/injection, schedule: Q01DX009 (ip), vehicle: saline with Tween-80
[2] = dose: 100.0 mg/kg/injection, schedule: Q01DX009 (ip), vehicle: saline with Tween-80
[3] = dose: 50.0 mg/kg/injection, schedule: Q04DX003 (ip), vehicle: saline with Tween-80
[4] = dose: 100.0 mg/kg/injection, schedule: Q04DX003 (ip), vehicle: saline with Tween-80
[5] = dose: 100.0 mg/kg/injection, schedule: Q04DX003 (ip), vehicle: saline
[6] = dose: 25.0 mg/kg/injection, schedule: Q04DX003 (ip), vehicle: saline with Tween-80

Question: With O=C(Nc1cccc2c(OC(=O)C(Cl)Cl)c(N=Nc3ccc(S(=O)(=O)Nc4nccs4)cc3)cc(N=Nc3ccc(S(=O)(=O)Nc4nccs4)cc3)c12)C(Cl)Cl (tested in a mixture with another compound) as the molecule, how does the T/C (dose: 50.0 mg/kg/injection, schedule: Q01DX005 (ip), vehicle: saline with Tween-80) read?
Answer: The T/C was 103 % of control.

Question: And the T/C [1]?
Answer: The T/C was 110 % of control.

Question: And the T/C (dose: 100.0 mg/kg/injection, schedule: Q01DX005 (ip), vehicle: saline with Tween-80)?
Answer: The T/C was 103 % of control.

Question: And the T/C [2]?
Answer: The T/C was 124 % of control.

Question: What does the source list for O=C(CC(C(=O)c1ccccc1)N1CC1)c1ccccc1 (stereo unspecified)?
Answer: T/C [3]: 90 % of control; T/C [4]: 90 % of control

Question: With CCCCCCCCSC(=S)N(C)NC(=O)c1ccccn1 as the molecule, how does the T/C [1] read?
Answer: Its T/C is 99 % of control.

Question: And the T/C [2]?
Answer: The T/C was 105 % of control.

Question: What does the source list for CCCCCCCCCCCCCCC1C(=O)NN(c2ccccc2)C1=O (stereo unspecified)?
Answer: T/C (dose: 37.5 mg/kg/injection, schedule: Q01DX009 (ip), vehicle: saline with Tween-80): 108 % of control; T/C (dose: 75.0 mg/kg/injection, schedule: Q01DX009 (ip), vehicle: saline with Tween-80): 115 % of control; T/C (dose: 150.0 mg/kg/injection, schedule: Q01DX009 (ip), vehicle: saline with Tween-80): 122 % of control

Question: For Cc1ccc(NC(=O)C(C)(C)C)c(C(O)(C(F)(F)F)C(F)(F)F)c1, which T/C (dose: 100.0 mg/kg/injection, schedule: Q01DX001 (ip), vehicle: saline with Tween-80) is on record?
Answer: The T/C was 99 % of control.

Question: What about the T/C (dose: 200.0 mg/kg/injection, schedule: Q01DX001 (ip), vehicle: saline with Tween-80) of the same molecule?
Answer: Its T/C is 106 % of control.

Question: And the T/C (dose: 400.0 mg/kg/injection, schedule: Q01DX001 (ip), vehicle: saline with Tween-80)?
Answer: Its T/C is 99 % of control.

Question: How did the T/C (dose: 50.0 mg/kg/injection, schedule: Q04DX003 (ip), vehicle: alcohol) turn out when CCOP(=O)(N1CC1(C)C)N1CC1(C)C (stereo unspecified) was run?
Answer: The T/C was 110 % of control.

Question: And the T/C (dose: 66.0 mg/kg/injection, schedule: Q04DX003 (ip), vehicle: saline)?
Answer: Its T/C is 280 % of control and 172 % of control.

Question: What about the T/C [5] of the same molecule?
Answer: The T/C was 272 % of control and 300 % of control.

Question: And the T/C (dose: 150.0 mg/kg/injection, schedule: Q04DX003 (ip), vehicle: saline)?
Answer: Its T/C is 272 % of control and 95 % of control.

Question: How did the T/C (dose: 12.5 mg/kg/injection, schedule: Q04DX003 (ip), vehicle: saline with Tween-80) turn out when COc1ccc2c(c1)NC(=O)C2(C)SC (stereo unspecified) was run?
Answer: The T/C was 103 % of control.

Question: What about the T/C [6] of the same molecule?
Answer: Its T/C is 97 % of control.

Question: What about the T/C [3] of the same molecule?
Answer: The T/C was 106 % of control.

Question: How did the T/C (dose: 12.5 mg/kg/injection, schedule: Q01DX005 (ip), vehicle: saline with Tween-80) turn out when Cc1cc(=O)oc2c(N)nccc12 was run?
Answer: Its T/C is 121 % of control.

Question: How did the T/C [6] turn out when CCCCCCCCCCCCCCCC(=O)OCCCCCCCCCC was run?
Answer: Its T/C is 100 % of control.

Question: What about the T/C [3] of the same molecule?
Answer: The T/C was 100 % of control.

Question: And the T/C [4]?
Answer: Its T/C is 100 % of control.

Question: How did the T/C (dose: 12.5 mg/kg/injection, schedule: Q04DX003 (ip), vehicle: saline) turn out when NC(CO)CSCc1ccccc1 (stereo unspecified) was run?
Answer: The T/C was 114 % of control.

Question: What about the T/C (dose: 25.0 mg/kg/injection, schedule: Q04DX003 (ip), vehicle: saline) of the same molecule?
Answer: The T/C was 104 % of control.

Question: What about the T/C (dose: 50.0 mg/kg/injection, schedule: Q04DX003 (ip), vehicle: saline) of the same molecule?
Answer: Its T/C is 98 % of control.

Question: What about the T/C [5] of the same molecule?
Answer: Its T/C is 97 % of control.

Question: Which results are given for CC1=CC=CC(=O)C1(C)C(Cl)Cl (stereo unspecified)?
Answer: T/C [4]: 110 % of control; T/C (dose: 200.0 mg/kg/injection, schedule: Q04DX003 (ip), vehicle: saline with Tween-80): 115 % of control; T/C (dose: 400.0 mg/kg/injection, schedule: Q04DX003 (ip), vehicle: saline with Tween-80): 120 % of control

Question: Which T/C (dose: 200.0 mg/kg/injection, schedule: Q04DX003 (ip), vehicle: Klucel (hydroxypropylcellulose) (HPC)) does the source give for C/C(=N\Nc1nc2ccccc2o1)c1ccncc1 here?
Answer: Its T/C is 104 % of control.

Question: And the T/C (dose: 400.0 mg/kg/injection, schedule: Q04DX003 (ip), vehicle: Klucel (hydroxypropylcellulose) (HPC))?
Answer: The T/C was 86 % of control.

Question: COc1cc(C(=O)N2CCN(c3ccccc3)CC2)c2ccccc2n1 was tested. Which T/C (dose: 180.0 mg/kg/injection, schedule: Q01DX010 (ip), vehicle: carboxymethylcellulose (CMC)) did it give?
Answer: Its T/C is 114 % of control.

Question: And the T/C (dose: 266.0 mg/kg/injection, schedule: Q01DX010 (ip), vehicle: carboxymethylcellulose (CMC))?
Answer: Its T/C is 104 % of control.

Question: What about the T/C (dose: 400.0 mg/kg/injection, schedule: Q01DX010 (ip), vehicle: carboxymethylcellulose (CMC)) of the same molecule?
Answer: The T/C was 104 % of control.

Question: What about the T/C (dose: 600.0 mg/kg/injection, schedule: Q01DX010 (ip), vehicle: carboxymethylcellulose (CMC)) of the same molecule?
Answer: Its T/C is 95 % of control.

Question: How did the T/C (dose: 0.19 mg/kg/injection, schedule: Q01DX009 (ip), vehicle: saline) turn out when CCCCCCCCCCCCCCCC[N+]1(CC)CCCC1 was run?
Answer: The T/C was 120 % of control.

Question: And the T/C (dose: 0.39 mg/kg/injection, schedule: Q01DX009 (ip), vehicle: saline)?
Answer: The T/C was 104 % of control.

Question: Which T/C (dose: 0.03 mg/kg/injection, schedule: Q01DX010 (ip), vehicle: saline) does the source give for CCC1CC2CCC(c3cc4c(cc3OC)N(C)C3C(O)(C(=O)OC)C(OC(C)=O)C5(CC)C=CCN6CCC43C65)c3[nH]c4ccccc4c3CCN(C1)C2 (stereo unspecified) here?
Answer: Its T/C is 90 % of control.

Question: And the T/C (dose: 0.06 mg/kg/injection, schedule: Q01DX010 (ip), vehicle: saline)?
Answer: Its T/C is 100 % of control.

Question: What about the T/C (dose: 0.13 mg/kg/injection, schedule: Q01DX010 (ip), vehicle: saline) of the same molecule?
Answer: Its T/C is 90 % of control.

Question: What about the T/C (dose: 0.25 mg/kg/injection, schedule: Q01DX010 (ip), vehicle: saline) of the same molecule?
Answer: Its T/C is 100 % of control.

Question: And the T/C (dose: 0.5 mg/kg/injection, schedule: Q01DX010 (ip), vehicle: saline)?
Answer: Its T/C is 95 % of control.

Question: How did the T/C [1] turn out when CCN(CC)CCC(=O)c1ccccc1 was run?
Answer: The T/C was 95 % of control.
